Test results as given in publication PMC10675732 (Viruses, 2023).

System: A36T virus (PA/A36T, A/PR/8/34 (H1N1))
Assay type: cell-based, influenza A virus

| SMILES | EC50 [µM] | Fold change |
| --- | --- | --- |
| NC(=O)c1nc(F)c[nH]c1=O [Favipiravir] | 19.1 ± 4.87 | 0.86 |
| O=C1c2c(O)c(=O)ccn2N([C@@H]2c3ccccc3SCc3c2ccc(F)c3F)[C@@H]2COCCN12 [baloxavir acid] | 0.00259 ± 0.00133 | 1.53 |
